Assay results as given in patent US20260242440A1, “NOVEL MEANS TO MODULATE NMDA RECEPTOR-MEDIATED TOXICITY” (FUNDAMENTAL PHARMA GMBH, priority 2018, published 2026).
“Also recorded” adds a separate entry of the source.

Key:
[1] = test system: primary mouse hippocampal neurons; assay: NMDA induced cell death (excitotoxicity) in cultured primary neurons; assay type: cell-based; conditions: 30 min pre-treatment with 10 μM compound; NMDA 20 μM for 10 min or 24 hours; cell death 24 hours after challenge
[2] = test system: primary mouse hippocampal neurons; assay: NMDA receptor induced mitochondrial membrane potential breakdown (Rh123 imaging); assay type: cell-based
Description: Coverslips with primary cultured neurons (DIV15-DIV17) were used to examine mitochondrial membrane potential (Ψm) and mitochondrial calcium signalling, which was performed at room temperature in CO2-independent culture medium (CICM) containing: 10 mM HEPES, 140 mM NaCl, 2.5 mM KCl, 1.0 mM MgCl2, 2.0 mM CaCl2, 1.0 mM Glycine, 35.6 mM Glucose and 0.5 mM Na-pyruvate. All images were obtained by a cooled-CCD camera (iXon 887, Andor) on an upright microscope (BX51WI, Olympus). Fluorescence excitation was provided by a xenon arc lamp in combination with an excitation filter wheel (MT-20, Olympus). Data were collected using Cell^R software (Olympus), analysed using ImageJ and quantified using Igor Pro (WaveMetrics). Ψm was detected with the small molecule fluorescence indicator Rhodamine 123 (Rh123; Molecular Probe™, R302). Primary cultured neurons were loaded with 4.3 μM Rh123 in CICM at 37° C. for 30 min, then washed and left in CICM for another 30 min before recording. At the end of each experiment, the mitochondrial uncoupler FCCP (5 μM, Sigma-Aldrich, Cat #C2920) was applied to the cells to reach the maximal Rh123 fluorescence intensity. Rh123 was imaged with 470±20 nm excitation and 525±25 nm emission wavelengths using a 20× objective. Rh123 fluorescence intensity was measured in the nucleus to minimize contamination from cytosolic mitochondrial signal and Rh123 fluorescence intensity was normalized to the maximum FCCP signal for each region of interest.
Mitochondrial dysfunction is a hallmark of NMDA receptor excitotoxicity and an early event en-route to neuronal death. A parameter that is often used to assess mitochondrial integrity is the mitochondrial membrane potential. A breakdown of the mitochondrial membrane potential can be observed after exposure of hippocampal or cortical neurons to NMDA and indicates excitotoxicity-associated mitochondrial dysfunction. Therefore, the inventors investigated the effect of polypeptides comprising the sequence of SEQ ID NO:5 or SEQ ID NO: 54 as well as of the control TRMP5 sequence (SEQ ID NO: 55) on mitochondrial membrane potential break down in primary mouse hippocampal neurons. Excitotoxicity leading to mitochondrial membrane potential break down was induced with bath application of 20 μM NMDA. After 11 minutes, the mitochondrial uncoupler, carbonylcyanide-p-trifluoromethoxyphenylhydrazone (FCCP) was added. Addition of FCCP leads to break-down of the mitochondrial membrane potential and served as a control of the test system.

[3] = test system: middle cerebral artery occlusion (MCAO) mouse stroke model; assay: middle cerebral artery occlusion (MCAO) mouse stroke model, infarct volume; assay type: in vivo; conditions: rAAV delivered stereotactically to mouse cortex 3 weeks before MCAO; quantified 7 days post-injury; vs PBS control
Description: Given the robust protective effect of SEQ ID NO:5 in cultured neurons, the inventors next analysed its neuroprotective potential in vivo using the middle cerebral artery occlusion (MCAO) mouse stroke model.
Stereotactic intracerebral injection to the cortex of mice: C57BL/6N male mice (8 weeks±5 days old) weighing 25±1 g were randomly grouped and anaesthetized with a mixture of Sedin©, Midazolam and Fentanyl®-Janssen and placed on a rodent stereotactic frame on a heat pad temperature controlled by a ATC1000 DC rectal thermometer (World Precision Instruments, Berlin). rAAV-SEQ ID NO:5) was infused into the left cortex (coordinates relative to Bregma: first site: AP 0.2 mm; ML 2.0; DV −2.0; second site: AP 0.2; ML 2.0; DV −1.8; third site: AP 0.2; ML 3.0; DV −4.0; forth site: AP 0.2; ML 3.0; DV −3.5.) using a Ultra Micro Pump III (World Precision Instruments, Berlin) to drive a 10 μl Nanofil syringe (World Precision Instruments, Berlin). […]
MCAO: Middle cerebral artery occlusion (MCAO) induced a permanent distal occlusion of the middle cerebral artery (MCA). […] The silver stained sections were scanned at 1200 dpi and infarct area was measured by using ImageJ software (NIH Image). Surgery was performed and ischemic damage was measured by an investigator who had no knowledge of the treatment group, rAAV or recombinant protein was applied by stereotactic injection or intranasal delivery.

Question: Which results are given for CCN(CCN)Cc1cccc(Br)c1 [P4]?
Answer: NMDA receptor induced cell death (transient and chronic NMDA toxicity) [1]: neuroprotective effect; protection of mitochondrial membrane potential from NMDA excitotoxicity ([2]; compound applied 30 min prior to recording, bath application of NMDA): significantly protect mitochondrial membrane potential from NMDA excitotoxicity

Question: How did the infarct volume [3] turn out when “SEQ ID NO:5: polypeptide, amino acid residues 633-689 of mouse TRPM4 (NSEERAARLLLRRCPLWGEATCLQLAMQADARAFFAQDGVQSLLTQKWWGEMDSTTP; listed as Mus musculus)” was run?
Answer: significantly smaller; also recorded: effectively reduced the infarct volumes

Question: What about the “NMDA receptor induced mitochondrial membrane potential breakdown” value ([2]; polypeptides expressed via rAAV, bath application of 20 μM NMDA) of the same molecule?
Answer: capable of preventing NMDA receptor induced mitochondrial membrane potential breakdown
